Source: patent publication US20210361563A1, “TRANSDERMAL SYSTEM FOR SYNERGISTIC IMMUNE-CHEMOTHERAPY USING MICRONEEDLES AND METHOD OF TREATMENT THEREOF” (THE UNIVERSITY OF HONG KONG, priority 2020, published 2021)

Tests used:
cell lines = assay: Cell apoptosis (APO-BrdU TUNEL) and cell cycle (PI) by flow cytometry; format: cell-based; conditions: Pt 100 μM, 4 h
Procedure: A large number of 3hydroxyl ends appeared when DNA strands became fragmented, and they were labeled with BrdUTP and terminal deoxynucleotidyl transferase (TdT) using the TUNEL technique. After DNA incorporation, BrdU could be detected through anti-BrdU antibody.
Cell apoptosis was detected using flow cytometry with the APO-BrdU™ tranferase dUTP nick end laveling (TUNEL) Assay Kit (Thermo Fisher Scientific, USA), and the phase of the cell cycle was determined using propidium iodide (PI, Thermo Fisher Scientific, USA) following the manufacturer's protocol. Cells were fixed with 1% paraformaldehyde (PFA) or ethanol before staining, and they were analyzed through flow cytometry (BD FACSVerse™, BD, Franklin Lake, N.J., USA) immediately after staining. All data were analyzed using FlowJo (7.6.1, BD, USA).

[1] = test system: SCC VII-luc tumor homograft; assay: Antitumor efficiency in immunocompetent murine tumor homograft model; format: in vivo, C3H/HeJ mice
Excerpt: We further investigated tumor inhibition on an immunocompetent murine tumor homograft model. SCC VII cell lines were subcutaneously inoculated into the right flank of C3H/HeJ mice to obtain a superficial tumor. […] Tumor volume was monitored using a Vernier caliper before the treatment and 3 days after each treatment. Furthermore, tumor growth was double confirmed using bioluminescent images (FIG. 3A). […] The ineffective therapeutic role of aPD-1, however, may be due to the following reasons. First, the renovated T cells may be too exhausted that they display impaired effector function with limited proliferative potential ^26. Second, cancer antigens may be “masked”; therefore, they cannot be identified by T-cells ^27. Third, the tumor microenvironment may contain multiple inhibitory immune cells, such as tumor-associated macrophages, which overwhelm the T-cells into have adverse effects ^28. Although the exact reason was unclear, the animal model in this study was unresponsive to systemic aPD-1 immunotherapy.
Male and female C3H/HeJ mice were purchased from The Jackson Laboratory (Bar Harbor, Me., USA) and bred in the Laboratory Animal Unit in the University of Hong Kong. All animal procedures were performed in accordance with a protocol approved by the Committee on the Used of Live Animals in Teaching and Research (CULATR, HKU). An immunocompetent murine tumor homograft model was established by injecting 1×10^6 SCC VII-luc cells suspended in 100 μL Hanks' balanced salt solution (HBSS, Gibco, USA) on the right flank of the mouse. […] The treatments were administered once the tumor volume reached 10 mm^3 and each treatment was administered every 3 days and lasted for 3 cycles. […] The tumor size was monitored by both the bioluminescence signals and the Vernier calipers every 3 days. Tumor volume was calculated as 0.5× long diameter×short diameter^2. Tumor volume and tumor wet weight were also measured after sacrifice. Tumor proliferation was determined in sliced tumor tissues using anti-Ki67 (Abcam, USA) following the IHC protocol.

[2] = test system: CD4+ and CD8+ T-cells in tumor; assay: T-cell infiltration in tumor tissues by flow cytometry; format: in vivo, C3H/HeJ mice; conditions: tumor tissue after sacrifice
Procedure: (§1) To evaluate T-cell responses and the immune profile, tumor tissues and blood were harvested after sacrifice. aPD-1, being an ICB, could be a positive regulator of TILs. The infiltration of CD4+ T-cells and CD8+ T-cells into tumor cells was assessed through flow cytometry. […] To reveal the cellular mechanism in vivo, the production of IFN-γ and TNF-α was determined using ELISA kit in mice serum. […] (FIG. 5E)
A piece of tumor was collected from each mouse for flow cytometry. After execution, the tissues were rinsed with PBS and maintained in PBS at 4° C. The tumor tissues were sliced into very small pieces and sieved through 100 μm cell strainer (BD Falcon, USA). Subsequently, the sliced tissue was pressed using the plunger end of a syringe. The supernatant was decanted and the pellet resuspended the pellet in Flow Cytometry Staining Buffer (PBS plus 10% FBS). The solution was separated into two Eppendorf tubes with a volume of 300 μL, then 1 μL primary antibody was added into one of the two tubes individually. The three primary antibodies used were rabbit anti-CD4 (Abcam, Cambridge, Mass., USA), rat anti-CD8 (Abcam, USA), and mouse anti-foxp3 (Abcam,USA). […]

IFN-γ, TNF-α = assay: Serum IFN-γ and TNF-α ELISA; format: in vivo, C3H/HeJ mice
Procedure: as §1
Blood was collected from mice and maintained in anticoagulative tubes ([…]® Blood Collection Tubes, K3E K3EDTA, Greiner Bio-One International, Australia). Blood was centrifuged at 1500 g for 10 minutes at 4° C., then plasma was transferred into a new Eppendorf. After centrifugation at 2000 g for 15 mins at 4° C., the supernatant was collected to obtain the serum of mice. IFN-γ and TNF-α in the serum were detected using Mouse IFN-γ ELISA kit (Thermo Fisher Scientific, USA) and Mouse TNF-α ELISA kit (Thermo Fisher Scientific, USA), respectively.

[3] = test system: SCC VII-luc tumor homograft; assay: Ki-67 IHC cell proliferation in tumor tissue sections; format: in vivo, C3H/HeJ mice
Procedure: Cell proliferation was further confirmed through IHC in formalin-fixed paraffin-embedded tumor tissue sections. […] Tumor infiltrating lymphocytes (TILs) like CD4+ cells and CD8+ infiltrated the tumor tissue and started to proliferate after aPD-1 treatment. […] TILs attacked the tumor tissues and killed the tumor cells afterwards. Whether these proliferated cells were T-cells or tumor cells were further confirmed through flow cytometry. Additionally, tumor cell apoptosis was assessed through in situ TUNEL assay (FIG. 4B & 4D). […] In sum, aPD-1-CDDP-NPs MN can not only increase the amount of activated T-cells but also kill tumor cells.
Male and female C3H/HeJ mice were purchased from The Jackson Laboratory (Bar Harbor, Me., USA) and bred in the Laboratory Animal Unit in the University of Hong Kong. All animal procedures were performed in accordance with a protocol approved by the Committee on the Used of Live Animals in Teaching and Research (CULATR, HKU). […] The tumor size was monitored by both the bioluminescence signals and the Vernier calipers every 3 days. Tumor volume was calculated as 0.5× long diameter×short diameter^2. Tumor volume and tumor wet weight were also measured after sacrifice. Tumor proliferation was determined in sliced tumor tissues using anti-Ki67 (Abcam, USA) following the IHC protocol.

[4] = H&E staining of liver, lung, kidney and spleen; format: in vivo, C3H/HeJ mice
Excerpt: Liver, lung, kidney and spleen of each group were collected after sacrifice for hematoxylin and eosin (H&E) staining to analyze whether drugs induced toxicity to these organs (FIG. 6C).
The livers, kidneys, spleens and lungs were collected after sacrifice and fixed in 4% PFA. After embedding into paraffin, the tissues were sliced into 5-μm sections for H&E staining. Images of the tissues were collected using a polarized light microscope (ECLIPSE LV100POL, Japan). The BUN and total IgG level in the serum were detected using a urea nitrogen detection kit (Thermo Fisher Scientific, USA) and a mouse IgG total ELISA kit (ThermoFisher Scientific, USA) respectively.

N.N.[Cl][Pt][Cl] [CDDP, cis-Diammineplatinum(II)dichloride]
cell apoptosis (cell lines): 2.79% | antitumor effect (in words) ([1]; SCC VII homograft, three treatments): limited treatment efficacy | tumor volume compared to control group (in words) ([1]; mouse, in vivo): no difference | tumor weight compared to control group (in words) ([1]; mouse, in vivo): significantly reduced | CD8+ T-cells among tumor cells [2]: 4.478% | IFN-γ level in serum (IFN-γ, TNF-α): lower IFN-γ levels than other five groups | cells continuing to proliferate (Ki-67) [3]: 25% | kidney histology (H&E) ([4]; kidney): severe toxic tubular necrosis | liver histology (H&E) ([4]; liver): some alterations were found in the liver parenchyma | lung histology (H&E) ([4]; lung): diffuse damage of the pulmonary alveoli and severe inflammatory infiltration | spleen histology (H&E) ([4]; spleen): white pulp was evidently reduced
